Key:
Format in all cases: cell-based
[1] = test system: human embryonic lung fibroblast IMR-90; test: Anti-fibrosis activity test: inhibition of proliferation of human embryonic lung fibroblast IMR-90 (CCK-8)
Summary of the method: (§1)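 Using CCK-8 colorimetry (450 nm), the study assessed growth inhibition after 48 h compound exposure; plating density was 2×10^4 cells/mL with 24 h attachment beforehand. IC50 was calculated from (1−Ai/Ao)×100%.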

[2] = test system: human hepatic stellate cells LX-2; test: Anti-fibrosis activity test: inhibition of proliferation of human hepatic stellate cells LX-2 (CCK-8); details: Homo sapiens, 48 h
Summary of the method: as §1

[3] = test system: cardiac fibroblast RAT-iCell-C002; test: Anti-fibrosis activity test: inhibition of proliferation of cardiac fibroblast RAT-iCell-C002 (CCK-8); details: Cardiac fibroblast, 48 h
Summary of the method: as §1

[4] = test system: human fibrosarcoma cells HT-1080; test: Anti-fibrosis activity test: inhibition of proliferation of human fibrosarcoma cells HT-1080 (CCK-8); details: Homo sapiens, HT-1080, 48 h
Summary of the method: as §1

[5] = test system: mouse macrophages (RAW264.7); test: Lipopolysaccharide-induced NO secretion in macrophages (Griess); details: Mus musculus, RAW264.7, 24 h, RAW264.7, LPS 1 μg/ml, a/b isomers given as first/second symbol, read-out: IC50 (μM), inhibition of lipopolysaccharide-induced NO secretion in macrophages
Summary of the method: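 Indomethacin and resveratrol served as positive controls while compounds were tested across concentrations on LPS-stimulated (1 μg/ml, 24 h) RAW264.7 cells. NO output was quantified colorimetrically (Griess, 548 nm).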

[6] = test system: human lung fibroblasts HFL1; test: Anti-fibrosis activity test: inhibition of proliferation of human lung fibroblasts HFL1 (CCK-8); details: Homo sapiens, HFL1, 48 h
Summary of the method: as §1

BHK-21 cells = test: Anti-fibrosis activity test: inhibition of BHK-21 cell proliferation (CCK-8); details: Mesocricetus auratus, BHK-21, 48 h
Summary of the method: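 BHK-21 cells seeded at 2×10^4 cells/mL, allowed to adhere 24 h at 37° C, 5% CO2, then exposed to compounds at graded concentrations in triplicate for 48 h. CCK-8 added for 2 h and absorbance read at 450 nm; inhibition rate taken as (1−Ai/Ao)×100% and IC50 fitted.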

[7] = test system: human dermal fibroblasts CCC-ESF-1; test: Anti-fibrosis activity test: inhibition of proliferation of human dermal fibroblasts CCC-ESF-1 (CCK-8); details: Fibroblast
Summary of the method: as §1

[8] = human embryonic lung fibroblast IMR-90, CCK-8, 48 hours
[9] = human hepatic stellate cells LX-2, CCK-8, 48 hours
[10] = cardiac fibroblast RAT-iCell-C002, CCK-8, 48 hours
[11] = human fibrosarcoma cells HT-1080, CCK-8, 48 hours
[12] = human lung fibroblasts HFL1, CCK-8, 48 hours
[13] = CCK-8, 48 hours after administration
[14] = human dermal fibroblasts CCC-ESF-1, CCK-8, 48 hours

IC50 [4, 11] [mM] | IC50 [5] [µM] | IC50 ([4]; HT-1080 cells, 48 h, CCK-8) [mM] | SMILES | IC50 [1, 8] [mM] | IC50 [2, 9] [mM] | IC50 [3, 10] [mM] | IC50 [6, 12] [mM] | IC50 (BHK-21 cells; [13]) [mM] | IC50 [7, 14] [mM] | IC50 ([1]; Homo sapiens, IMR-90 cells, 48 h, CCK-8) [mM] | IC50 ([2]; LX-2, 48 h, LX-2 cells, CCK-8) [mM] | IC50 ([3]; RAT-iCell-C002 cells, CCK-8) [mM] | IC50 ([6]; HFL1 cells, 48 h, CCK-8) [mM] | IC50 (BHK-21 cells; 48 h, CCK-8) [mM] | IC50 ([7]; Homo sapiens, CCC-ESF-1 cells, 48 h, CCK-8) [mM]
0.05 to 5 | 1 to 10 |  | O=C1c2c(nc3cc(N4CCNCC4)c(F)cc3c2OCCO)-c2cccn21 [Compound 348b, 7-fluoro-9-(2-hydroxyethoxy)-6-(piperazin-1-yl)-10H-pyrrolizino[1,2-b]quinolin-10-one] | 0.05 to 5 | < 0.05 | 0.05 to 5 | 0.05 to 5 | 0.05 to 5 | 0.05 to 5 |  |  |  |  |  | 
0.05 to 5 | 0.1 to 1 |  | C=CCOc1c2c(nc3ccc(F)cc13)-c1cccn1C2=O [Compound 109b, 9-(allyloxy)-7-fluoro-10H-pyrrolizino[1,2-b]quinolin-10-one] | 0.05 to 5 | 0.05 to 5 | 0.05 to 5 | 0.05 to 5 | 0.05 to 5 | 0.05 to 5 |  |  |  |  |  | 
0.05 to 5 | 1 to 10 |  | N#Cc1cccc2c(OCc3cccc(F)c3)c3c(nc12)-c1cccn1C3=O [Compound 454b, 9-((3-fluorobenzyl)oxy)-10-oxo-10H-pyrrolizino[1,2-b]quinoline-5-carbonitrile] | 0.05 to 5 | 0.05 to 5 | 0.05 to 5 | 0.05 to 5 | 0.05 to 5 | 0.05 to 5 |  |  |  |  |  | 
0.05 to 5 | 1 to 10 |  | CC(C)n1c2c(c(=O)c3cc(F)c(N4CCNCC4)cc31)C(=O)n1cccc1-2 [Compound 331a, 7-Fluoro-4-isopropyl-6-(piperazin-1-yl)-9H-pyrrolizino[1,2-b]quinoline-9,10(4H)-dione] | 0.05 to 5 | 0.05 to 5 | 0.05 to 5 | 0.05 to 5 | 0.05 to 5 | 0.05 to 5 |  |  |  |  |  | 
0.05 to 5 | 10 to 50 |  | O=C1c2c(nc3cccc(C(F)(F)F)c3c2OCc2ccc(Cl)cc2)-c2cccn21 [Compound 465b, 9-((4-chlorobenzyl)oxy)-8-(trifluoromethyl)-10H-pyrrolizino[1,2-b]quinolin-10-one] | 0.05 to 5 | 0.05 to 5 | 0.05 to 5 | 0.05 to 5 | 0.05 to 5 | 0.05 to 5 |  |  |  |  |  | 
0.05 to 5 | 10 to 50 |  | O=C1c2c(n(Cc3ccccc3F)c3cccc(Cl)c3c2=O)-c2cccn21 [Compound 480a, 8-Chloro-4-(2-fluorobenzyl)-9H-pyrrolizino[1,2-b]quinoline-9,10(4H)-dione] | 0.05 to 5 | 0.05 to 5 | < 0.05 | 0.05 to 5 | 0.05 to 5 | 0.05 to 5 |  |  |  |  |  | 
0.05 to 5 | 1 to 10 |  | O=C1c2c(n(-c3ccc(F)cc3)c3ccc(C(F)(F)F)cc3c2=O)-c2cccn21 [Compound 259a, 4-(4-Fluorophenyl)-7-(trifluoromethyl)-9H-pyrrolizino[1,2-b]quinoline-9,10(4H)-dione] | 0.05 to 5 | 0.05 to 5 | 0.05 to 5 | 0.05 to 5 | 0.05 to 5 | 5 to 20 |  |  |  |  |  | 
0.05 to 5 | 0.1 to 1 |  | O=C1c2c([nH]c3cc(N4CCNCC4)c(C(F)(F)F)cc3c2=O)-c2cccn21 [Compound 397a, 6-(Piperazin-1-yl)-7-(trifluoromethyl)-9H-pyrrolizino[1,2-b]quinoline-9,10(4H)-dione] | 0.05 to 5 | 0.05 to 5 | 0.05 to 5 | 0.05 to 5 | 0.05 to 5 | 0.05 to 5 |  |  |  |  |  | 
5 to 20 | 0.1 to 1 |  | O=C1c2c(n(C3CC3)c3cc(N4CCNCC4)c(F)cc3c2=O)-c2cccn21 [Compound 340a, 4-Cyclopropyl-7-fluoro-6-(piperazin-1-yl)-9H-pyrrolizino[1,2-b]quinoline-9,10(4H)-dione] | 0.05 to 5 | 0.05 to 5 | 0.05 to 5 | 0.05 to 5 | 0.05 to 5 | 0.05 to 5 |  |  |  |  |  | 
0.05 to 5 | 1 to 10 |  | O=C1c2c([nH]c3ccc(Cl)cc3c2=O)-c2cccn21 [Compound 180a, 7-Chloro-9H-pyrrolizino[1,2-b]quinoline-9,10(4H)-dione] | 0.05 to 5 | 0.05 to 5 | 0.05 to 5 | 0.05 to 5 | 20 to 100 | 0.05 to 5 |  |  |  |  |  | 
0.05 to 5 | 1 to 10 |  | O=C1c2c(n(CCO)c3cc(N4CCNCC4)c(F)cc3c2=O)-c2cccn21 [Compound 348a, 7-Fluoro-4-(2-hydroxyethyl)-6-(piperazin-1-yl)-9H-pyrrolizino[1,2-b]quinoline-9,10(4H)-dione] | 0.05 to 5 | 0.05 to 5 | 0.05 to 5 | 0.05 to 5 | 20 to 100 | 0.05 to 5 |  |  |  |  |  | 
0.05 to 5 | 0.1 to 1 |  | O=C1c2c(n(-c3ccc(Cl)cc3)c3ccc(OC(F)(F)F)cc3c2=O)-c2cccn21 [Compound 300a, 4-(4-Chlorophenyl)-7-(trifluoromethoxy)-9H-pyrrolizino[1,2-b]quinoline-9,10(4H)-dione] | 0.05 to 5 | 0.05 to 5 | 0.05 to 5 | 0.05 to 5 | 5 to 20 | 0.05 to 5 |  |  |  |  |  | 
5 to 20 | 0.1 to 1 |  | N#Cc1cccc2c1c(=O)c1c(n2Cc2ccccc2F)-c2cccn2C1=O [Compound 469a, 4-(2-Fluorobenzyl)-9,10-dioxo-4,10-dihydro-9H-pyrrolizino[1,2-b]quinoline-8-carbonitrile] | 0.05 to 5 | 0.05 to 5 | 0.05 to 5 | 0.05 to 5 | < 0.05 | 0.05 to 5 |  |  |  |  |  | 
0.05 to 5 | 1 to 10 |  | O=C1c2c(nc3cc(Cl)ccc3c2OCc2ccc(F)cc2)-c2cccn21 [Compound 502b, 6-chloro-9-((4-fluorobenzyl)oxy)-10H-pyrrolizino[1,2-b]quinolin-10-one] | 0.05 to 5 | 0.05 to 5 | 0.05 to 5 | 0.05 to 5 | 0.05 to 5 | 0.05 to 5 |  |  |  |  |  | 
 | 1 to 10 | 0.05 to 5 | CCOCCCOc1c2c(nc3ccccc13)C(=O)n1cccc1-2 [Compound 791b, 11-(3-ethoxypropoxy)-5H-pyrrolizino[2,1-b]quinolin-5-one] |  |  |  |  |  |  | 0.05 to 5 | 0.05 to 5 | 0.05 to 5 | 0.05 to 5 | 0.05 to 5 | 0.05 to 5
0.05 to 5 | 0.1 to 1 |  | O=C1c2c([nH]c3cccc(O)c3c2=O)-c2cccn21 [Compound 470a, 8-Hydroxy-9H-pyrrolizino[1,2-b]quinoline-9,10(4H)-dione] | 0.05 to 5 | 0.05 to 5 | 0.05 to 5 | 0.05 to 5 | 0.05 to 5 | 0.05 to 5 |  |  |  |  |  | 
0.05 to 5 | 1 to 10 |  | O=C1c2c(nc3c(F)cccc3c2OCc2ccc(F)cc2)-c2cccn21 [Compound 452b, 5-fluoro-9-((4-fluorobenzyl)oxy)-10H-pyrrolizino[1,2-b]quinolin-10-one] | 0.05 to 5 | 0.05 to 5 | 0.05 to 5 | 0.05 to 5 | 0.05 to 5 | 0.05 to 5 |  |  |  |  |  | 
0.05 to 5 | 0.1 to 1 |  | C=CCn1c2c(c(=O)c3cc(F)ccc31)C(=O)n1cccc1-2 [Compound 109a, 4-Allyl-7-fluoro-9H-pyrrolizino[1,2-b]quinoline-9,10(4H)-dione] | < 0.05 | 0.05 to 5 | 0.05 to 5 | 0.05 to 5 | 0.05 to 5 | 0.05 to 5 |  |  |  |  |  | 
0.05 to 5 | 1 to 10 |  | N#Cc1cccc2nc3c(c(OCc4cccc(F)c4)c12)C(=O)n1cccc1-3 [Compound 463b, 9-((3-fluorobenzyl)oxy)-10-oxo-10H-pyrrolizino[1,2-b]quinoline-8-carbonitrile] | 0.05 to 5 | 0.05 to 5 | 0.05 to 5 | 0.05 to 5 | 0.05 to 5 | 0.05 to 5 |  |  |  |  |  | 
0.05 to 5 | 1 to 10 |  | O=C1c2c(n(Cc3ccc(F)cc3)c3cccc(Cl)c3c2=O)-c2cccn21 [Compound 474a, 8-Chloro-4-(4-fluorobenzyl)-9H-pyrrolizino[1,2-b]quinoline-9,10(4H)-dione] | 0.05 to 5 | 0.05 to 5 | 0.05 to 5 | 0.05 to 5 | < 0.05 | 0.05 to 5 |  |  |  |  |  | 
